Laboratory results from patent US12404304B1, “Telomerase reverse transcriptase (TERT) expression enhancing compounds and methods for using the same” (Sierra Sciences, LLC, priority 2007, dated 2025).
Like-named read-outs stand apart in the source and are kept apart here.

Key:
[1] = system: human TERT expression (hTERT mRNA); test: Quantitative real-time RT-PCR of hTERT mRNA expression (Ct, transcripts) in compound-treated cells; assay type: cell-based
Outline: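 Read-out is cycle threshold, the cycle at which probe fluorescence released by Taq 5′-nuclease activity crosses a set level; Ct falls as hTERT mRNA rises. cDNA of treated and untreated cells was compared, with starting transcripts quantified against a known-cDNA standard curve.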

viable cells in culture = test: Cell viability assay (CellTiter-Glo Luminescent Cell Viability Assay, ATP quantitation, percent of vehicle control)
Method: Cell viability is determined using a homogeneous method, such as CellTiter-Glo® Luminescent Cell Viability Assay (Promega Corporation, Madison, WI.) to determine the number of viable cells in culture These assays are based on quantitation of the ATP present, which signals the presence of metabolically active cells. Luminescent values of compound treated cells are compared to that of cells treated with vehicle alone to determine the average cell viability as a percent of control.

SMILES	Average Number of hTERT Transcripts [1]	Average Cell Viability after 24 Hours (% DMSO) (viable cells in culture)	Average Number of hTERT Transcripts ([1]; quantitative real-time RT-PCR)
O=C(NCC1COc2ccccc2O1)c1ccc(NC(=O)C2COc3ccccc3O2)cc1 (centres unmarked) [compound 1430]	23.55	88.00	–
O=C(CC(NC1CCCCC1)C(=O)O)Nc1cccc([N+](=O)[O-])c1 (centres unmarked) [compound 1438]	8.29	97.89	–
Clc1ccc(OCc2nn3c(Cc4ccccc4)nnc3s2)c(Cl)c1 [compound 1475]	17.56	67.26	–
O=C(NCCCn1ccnc1)c1cc(-c2ccc(F)cc2)on1 [compound 1179]	–	97.79	3.70
Cc1ccc(Nc2nc3nonc3nc2Nc2ccccc2F)cc1 [compound 1230]	–	72.00	17.54
O=C(CSc1ccc(-c2ccccn2)nn1)Nc1ccccc1F [compound 1257]	–	82.05	37.50
CC1CCN(C(=O)CN(Cc2ccc(F)cc2)S(C)(=O)=O)CC1 [compound 1351]	–	98.19	5.17
COc1cc(NS(=O)(=O)c2cc(Cl)ccc2Cl)c2ncccc2c1 [compound 1026]	–	52.03	11.55
CC(=O)NC(c1ccc(N(C)C)cc1)c1cc(Cl)c2cccnc2c1O (centres unmarked) [compound 1059]	–	53.52	26.79
O=C(Oc1ccc([N+](=O)[O-])cc1)c1cc(S(=O)(=O)N2CCOCC2)cs1 [compound 1397]	5.00	96.05	–
Cc1ccc(NC(=O)c2cc([N+](=O)[O-])ccc2O)cc1 [compound 1338]	–	80.45	49.42
O=C(COc1ccccc1)Nc1ccc(C(=O)NCC2COc3ccccc3O2)cc1 (centres unmarked) [compound 1553]	23.58	77.33	–
Cc1nn2c(=O)cc(-c3ccc(Cl)cc3)[nH]c2c1-c1ccccc1 [compound 1156]	–	61.07	45.97
C/C(=N\NC(=O)c1ccccc1O)c1ccccc1O [compound 1530]	30.46	96.99	–
Cc1ccc(NS(=O)(=O)c2ccc(NC(=O)C(c3ccccc3)c3ccccc3)cc2)cc1C [compound 1433]	45.43	75.77	–
COc1cccc(/C=N/NC(=O)C2CC2c2ccccc2)c1O (centres unmarked) [compound 1529]	29.94	102.67	–
Cc1ccc(-n2c(=O)oc3ccc(Cl)cc3c2=O)cc1 [compound 1241]	–	77.91	39.79
O=C(NCCc1ccccc1)c1ccc(NC(=O)C2(c3ccccc3)CCCC2)cc1 [compound 1428]	7.81	92.20	–
O=C(N/N=C/c1cc(Br)cc(I)c1O)c1ccccn1 [compound 1274]	–	75.52	20.59
O=c1c(-c2ccccc2)c[nH]c2c(-c3ccccc3)cnn12 [compound 1161]	–	62.93	139.82
CC(/C=C/C(=O)NO)=C\C(C)C(=O)c1ccc(N(C)C)cc1 (centres unmarked) [compound 1472]	76.60	82.14	–
Cc1ccc(-c2cc(=O)n3nc(C)c(-c4ccccc4)c3[nH]2)cc1 [compound 1151]	–	77.04	164.58
Cn1c(-c2nnc(SCC(=O)NCc3nc4ccccc4n3C)o2)cc2ccccc21 [compound 1516]	127.39	87.09	–
Cc1nc(-n2nc(C)c(CC(=O)Nc3ccc(F)cc3)c2O)sc1C [compound 1128]	–	86.93	42.25
O=C(Nc1nccs1)c1sc2ccccc2c1Cl [compound 1316]	–	73.91	13.39
Cc1ccc(S(=O)(=O)NC(=O)c2ccccc2O)cc1 [compound 1323]	–	121.47	11.00
Cc1ccnc(NC(c2cccc([N+](=O)[O-])c2)c2ccc3ccc(C)nc3c2O)c1 (centres unmarked) [compound 1084]	–	65.08	11.54
O=C(CN1C(C(=O)c2ccccc2)=C(O)c2ccccc2S1(=O)=O)c1ccc(Br)cc1 [compound 1210]	–	62.70	26.56

SMILES	Average Number of hTERT Transcripts [1]	Average Cell Viability after 24 Hours (% DMSO) (viable cells in culture)	Average Number of hTERT Transcripts ([1]; quantitative real-time RT-PCR)
Cn1c(=O)c2c(nc(SCc3cc4c(cc3Cl)OCO4)n2C)n(C)c1=O [compound 1235]	–	75.75	153.66
CCOC(=O)CSc1nc(C)c(CC)c(C)c1C(N)=O [compound 1348]	–	106.19	5.97
Cc1ccc(NC(=O)NCc2ccccc2F)cc1C [compound 1353]	–	87.98	3.61
CC(C)C(=O)NC(c1ccc(C(C)C)cc1)c1ccc2ccccc2c1O (centres unmarked) [compound 1377]	10.23	67.09	–
O=C(CS(=O)(=O)c1ccc(F)cc1)Nc1nc(-c2ccccn2)cs1 [compound 1203]	–	73.09	119.23
O=C(Nc1ccc(Cl)c(Cl)c1)Nc1nnc(CSc2ccccc2)s1 [compound 1301]	–	63.90	65.14
O=C(Nc1nc(-c2ccccn2)cs1)c1ccc2ncsc2c1 [compound 1205]	–	86.42	114.55
Cc1ccc2nc(-c3ccc(NC(=S)Nc4cccc([N+](=O)[O-])c4)cc3)sc2c1 [compound 1443]	7.82	77.16	–
O=C(O)CC12CC3CC(C1)CC(CC(=O)O)(C3)C2 [compound 1355]	–	95.78	4.95
CCC(C)Cn1c(CO)nc2ccccc21 (centres unmarked) [compound 1340]	–	106.88	4.37
O=C(NC1CC1)c1cc(-c2cccs2)on1 [compound 1208]	–	70.93	380.09
CCOC(=O)c1ccc(N2C(=O)c3[nH]nc(-c4ccccc4)c3C2c2ccccc2OC)cc1 (centres unmarked) [compound 1194]	–	76.71	6.20
COc1ccc(CCNC(=O)c2cc(-c3cccs3)on2)cc1 [compound 1494]	9.18	110.08	–
S=C(Nc1cccc(Cl)c1)Nc1cc(Cl)ccc1Cl [compound 1345]	–	45.42	24.88
CCC(=O)NC(=S)Nc1ccccc1C#N [compound 1419]	5.40	87.51	–
Cc1cn(-c2ccc3c(Cl)cc(Cl)c(O)c3n2)nc1C [compound 1079]	–	71.22	98.36
CCOC(=O)c1nn(-c2ccccc2)c(=O)c2c(NC(=O)c3ccc4c(c3)OCO4)scc12 [compound 1298]	–	101.83	8.68
COc1cc(CNC2CCCC2)ccc1OCCO [compound 1450]	8.24	96.61	–
O=C(NCCc1ccccn1)c1cc(-c2cccs2)on1 [compound 1521]	329.90	106.64	–
C=C(C)Cn1c(CCO)nc2ccccc21 [compound 1368]	–	106.63	9.25
Oc1cc(-c2ccc(Cl)cc2)nn1-c1nc2ccccc2[nH]1 [compound 1121]	–	52.77	119.73
Nc1c(C(=O)Nc2ccc(Cl)c(Cl)c2)sc2nc3c(cc12)CCCC3 [compound 1317]	–	88.17	10.56
COC(=O)CSc1nnc(-c2sc3ccccc3c2Cl)n1C [compound 1331]	–	90.44	32.92
CC(C)(C)C(=O)Nc1nc2c(Cl)c(Cl)ccc2s1 [compound 1446]	46.62	65.61	–
O=C1c2oc3ccccc3c(=O)c2C(c2cccc(OCc3ccccc3)c2)N1c1nccs1 (centres unmarked) [compound 1324]	–	57.19	8.42
O=C(N/N=C/c1cc(Cl)ccc1O)c1ccc(Br)cc1 [compound 1264]	–	64.22	33.41
CC(=O)Oc1ccccc1C(=O)Nc1ccc(F)cc1F [compound 1318]	–	59.35	13.40
